Measurements as given in patent publication US12558428B2, “Heterobifunctional compounds and their use in treating disease” (Halda Therapeutics OpCo, Inc., priority 2024, dated 2026).
Where two headings read alike, the source gives them in different places.

Key:
Format in all cases: cell-based
[1] = tested on: T-Rex 293 cells having increased expression of estrogen receptor alpha protein; assay: Cellular growth inhibition assay, T-Rex 293 cells, (+) doxycycline; details: 72 hours
Method in brief: (§1)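 ERα overexpression was switched on by 3 ng/mL doxycycline in a stably transfected T-Rex 293 clone, while uninduced cells served as the comparison line. Proliferation over 72 h of compound treatment was assessed by ATP luminescence, and GI50 values came from four-parameter curves.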

[2] = tested on: T-Rex 293 cells lacking increased expression of estrogen receptor alpha protein; assay: Cellular growth inhibition assay, T-Rex 293 cells, (−) doxycycline; details: 72 hours
Method in brief: as §1

[3] = tested on: MCF7 cells (ATCC #HTB-22); assay: Cellular growth inhibition assay, MCF7 cells purchased from ATCC; details: Table 8-A, MCF7 cells purchased from ATCC, six days, CellTiter-Glo, read-out: GI50
Method in brief: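 MCF7 cells in RPMI 1640 with 10% FBS and 0.2 U/ml insulin, seeded at 1,500 cells/well (ATCC) or 225 cells/well (ECACC). Compounds added 24 h later, then 6 days at 37° C. Viability by CellTiter-Glo 2.0 luminescence. GI50 from four-parameter fit.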

[4] = T-REx-293, 72 h, Table 7-A, T-Rex 293 cells with doxycycline (increased ERα expression), CellTiter-Glo, read-out: (+) Dox GI50
[5] = T-REx-293, 72 h, Table 7-A, T-Rex 293 cells without doxycycline (lacking increased ERα expression), CellTiter-Glo, read-out: (−) Dox GI50

| GI50 ([3]; Homo sapiens, MCF7, 144 h) | GI50 [3] | Compound | GI50 [1, 4] | GI50 [2, 5] | GI50 ([1]; T-REx-293, 72 h, T-Rex 293 cells with doxycycline-induced ERα expression, CellTiter-Glo 2.0, read-out: (+) Dox TRex ERa (GI50)) | GI50 ([2]; T-REx-293, 72 h, T-Rex 293 cells without doxycycline, CellTiter-Glo 2.0, read-out: (−) Dox TRex ERa (GI50)) | GI50 ([1]; Table 7-A, T-Rex 293 cells with doxycycline (increased ERα expression), CellTiter-Glo, read-out: (+) Dox GI50) | GI50 ([2]; Table 7-A, T-Rex 293 cells without doxycycline (lacking increased ERα expression), CellTiter-Glo, read-out: (−) Dox GI50) |
| --- | --- | --- | --- | --- | --- | --- | --- | --- |
| < 50 nM | – | Cc1sc2c(c1C)C(c1ccc(NCCCN3CCN(CCOc4ccc([C@@H]5c6ccc(O)cc6CC[C@@H]5c5ccccc5)cc4)CC3)cc1)=NC(Cc1ncco1)c1nnc(C)n1-2 (stereo partly drawn) [III-37] | < 50 nM | 50 to 500 nM | – | – | – | – |
| 50 to 500 nM | – | Cc1sc2c(c1C)C(c1ccc(N3CC(CN4CC(CN5CC(c6ccc([C@@H]7c8ccc(O)cc8CC[C@@H]7c7ccccc7)cc6)C5)C4)C3)cc1)=N[C@@H](C)c1nnc(C)n1-2 [III-219] | < 50 nM | 50 to 500 nM | – | – | – | – |
| 500 to 2500 nM | – | Cc1sc2c(c1C)C(c1ccc(N3CC(CC4CCN(c5ccc([C@@H]6c7ccc(O)cc7CC[C@@H]6c6ccccc6)cc5)CC4)C3)cc1)=N[C@@H](C)c1nnc(C)n1-2 [III-138] | 500 to 2500 nM | > 2500 nM | – | – | – | – |
| 50 to 500 nM | – | Cc1sc2c(c1C)C(c1ccc(N3CC(CN4CC(Oc5ccc([C@@H]6c7ccc(O)cc7CC[C@@H]6c6ccccc6)cc5)C4)C3)cc1)=N[C@@H](C)c1nnc(C)n1-2 [III-99] | 50 to 500 nM | 50 to 500 nM | – | – | – | – |
| < 50 nM | – | Cc1sc2c(c1C)C(c1ccc(N3C[C@H]4C[C@@H]3CN4CCOc3ccc([C@@H]4c5ccc(O)cc5CC[C@@H]4c4ccccc4)cc3)cc1)=NC(Cc1ncco1)c1nnc(C)n1-2 (stereo partly drawn) [III-40] | 50 to 500 nM | 50 to 500 nM | – | – | – | – |
| < 50 nM | – | Cc1sc2c(c1C)C(c1ccc(N3CCC(O)(CN4CCN(c5ccc([C@@H]6c7ccc(O)cc7CC[C@@H]6c6ccccc6)nn5)CC4)CC3)cc1)=N[C@@H](Cc1ncco1)c1nnc(C)n1-2 [III-226] | < 50 nM | 50 to 500 nM | – | – | – | – |
| 50 to 500 nM | – | Cc1sc2c(c1C)C(c1ccc(N3CCN(CC4CN(c5ccc([C@H]6c7ccc(O)cc7CC[C@H]6c6ccccc6)cc5)C4)CC3)cc1)=N[C@@H](C)c1nnc(C)n1-2 [III-68] | 50 to 500 nM | 500 to 2500 nM | – | – | – | – |
| 50 to 500 nM | – | Cc1sc2c(c1C)C(c1ccc(N3CCC(O)(CN4CCN(c5ccc([C@H]6c7ccc(O)cc7CC[C@H]6c6ccccc6)nn5)CC4)CC3)cc1)=N[C@@H](Cc1ncco1)c1nnc(C)n1-2 [III-225] | < 50 nM | 50 to 500 nM | – | – | – | – |
| 50 to 500 nM | – | Cc1sc2c(c1C)C(c1ccc(N3CC(N4CCN(Cc5ccc([C@@H]6c7ccc(O)cc7CC[C@@H]6c6ccccc6)cc5)CC4)C3)cc1)=N[C@@H](Cc1ncco1)c1nnc(C)n1-2 [III-124] | 50 to 500 nM | 500 to 2500 nM | – | – | – | – |
| < 50 nM | – | Cc1sc2c(c1C)C(c1ccc(N[C@H]3CCN(CCOc4ccc([C@@H]5c6ccc(O)cc6CC[C@@H]5c5ccccc5)cc4)C[C@@H]3F)cc1)=NC(Cc1ncco1)c1nnc(C)n1-2 (stereo partly drawn) [III-46] | < 50 nM | < 50 nM | – | – | – | – |
| < 50 nM | – | Cc1sc2c(c1C)C(c1ccc(N3CCC(O)(CC4CCN(c5ccc([C@@H]6c7ccc(O)cc7CC[C@@H]6c6ccccc6)cc5)CC4)CC3)cc1)=N[C@@H](Cc1ncco1)c1nnc(C)n1-2 [III-155] | < 50 nM | 50 to 500 nM | – | – | – | – |
| < 50 nM | – | Cc1sc2c(c1C)C(c1ccc(N3CCC(N4CCN(CCOc5ccc([C@@H]6c7ccc(O)cc7CC[C@@H]6c6ccccc6)cc5)CC4)CC3)cc1)=N[C@@H](Cc1ncco1)c1nnc(C)n1-2 [III-105] | < 50 nM | 50 to 500 nM | – | – | – | – |
| 50 to 500 nM | – | Cc1sc2c(c1C)C(c1ccc(N3CC(CN4CC(Oc5ccc([C@H]6c7ccc(O)cc7CC[C@H]6c6ccccc6)cc5)C4)C3)cc1)=N[C@@H](C)c1nnc(C)n1-2 [III-100] | 50 to 500 nM | 50 to 500 nM | – | – | – | – |

The next lines start with the compound.

| Compound | GI50 ([3]; Homo sapiens, MCF7, 144 h) | GI50 [3] | GI50 [1, 4] | GI50 [2, 5] | GI50 ([1]; T-REx-293, 72 h, T-Rex 293 cells with doxycycline-induced ERα expression, CellTiter-Glo 2.0, read-out: (+) Dox TRex ERa (GI50)) | GI50 ([2]; T-REx-293, 72 h, T-Rex 293 cells without doxycycline, CellTiter-Glo 2.0, read-out: (−) Dox TRex ERa (GI50)) | GI50 ([1]; Table 7-A, T-Rex 293 cells with doxycycline (increased ERα expression), CellTiter-Glo, read-out: (+) Dox GI50) | GI50 ([2]; Table 7-A, T-Rex 293 cells without doxycycline (lacking increased ERα expression), CellTiter-Glo, read-out: (−) Dox GI50) |
| --- | --- | --- | --- | --- | --- | --- | --- | --- |
| Cc1sc2c(c1C)C(c1ccc(N3CC(CN4CCN(CC5CN(c6ccc([C@@H]7c8ccc(O)cc8CC[C@@H]7c7ccccc7)cc6)C5)CC4)C3)cc1)=N[C@H](C)c1nnc(C)n1-2 [III-146] | < 50 nM | – | 500 to 2500 nM | 500 to 2500 nM | – | – | – | – |
| Cc1sc2c(c1C)C(c1ccc(N3CCC(O)(CN4CCN(c5ccc([C@H]6c7ccc(O)cc7CC[C@H]6c6ccc(F)cc6)c(Cl)c5)CC4)CC3)cc1)=N[C@@H](C)c1nnc(C)n1-2 [III-306] | 50 to 500 nM | – | 50 to 500 nM | 500 to 2500 nM | – | – | – | – |
| Cn1cc(-c2cc(C(C)(C)O)ccc2Oc2ccc(C#CC3CC4(CCN(CCOc5ccc(C(=O)c6c(-c7ccc(O)cc7)sc7cc(O)ccc67)cc5)CC4)C3)cc2)c2cc[nH]c2c1=O [I-31, 4-(2-(4-((7-(2-(4-(6-hydroxy-2-(4-hydroxyphenyl)benzo [b]thiophene-3-carbonyl)phenoxy)ethyl)-7-azaspiro[3.5]nonan-2-yl)ethynyl)phenoxy)-5-(2-hydroxypropan-2-yl)phenyl)-6-methyl-1,6-dihydro-7H-pyrrolo[2,3-c]pyridin-7-one] | < 50 nM | – | – | – | < 50 nM | 50 to 500 nM | – | – |
| Cc1sc2c(c1C)C(c1ccc(N3CC4(CC(CN5CCN(c6cc(F)c([C@@H]7c8ccc(O)cc8CC[C@@H]7c7ccc(F)cc7)c(F)c6)CC5)C4)C3)cc1)=N[C@@H](C)c1nnc(C)n1-2 [III-296] | 50 to 500 nM | – | 50 to 500 nM | 500 to 2500 nM | – | – | – | – |
| Cc1sc2c(c1C)C(c1ccc(N3CC(CN4CCC(F)(CC5CN(c6ccc([C@@H]7c8ccc(O)cc8CC[C@@H]7c7ccccc7)cc6)C5)CC4)C3)cc1)=N[C@@H](C)c1nnc(C)n1-2 [III-212] | < 50 nM | – | < 50 nM | 50 to 500 nM | – | – | – | – |
| Cc1sc2c(c1C)C(c1ccc(C3CCN(CC4(O)CCN(c5ccc([C@H]6c7ccc(O)cc7CC[C@H]6c6ccccc6)cc5)CC4)CC3)cc1)=N[C@@H](C)c1nnc(C)n1-2 [III-27] | 50 to 500 nM | – | < 50 nM | 50 to 500 nM | – | – | – | – |
| Cc1sc2c(c1C)C(c1ccc(N3CCC(O)(CN4CCN(c5ccc([C@H]6c7ccc(O)cc7CC[C@H]6c6c(F)cccc6F)c(F)c5)CC4)CC3)cc1)=N[C@@H](C)c1nnc(C)n1-2 [III-294] | 50 to 500 nM | – | 50 to 500 nM | 50 to 500 nM | – | – | – | – |
| Cc1sc2c(c1C)C(c1ccc(N3CCN(CCN4CC[C@H](Oc5ccc(C6=C(c7ccc(Cl)cc7Cl)CCCc7cc(C(=O)O)ccc76)cc5)C4)CC3)cc1)=N[C@@H](C)c1nnc(C)n1-2 [IV-2] | 50 to 500 nM | – | 50 to 500 nM | 500 to 2500 nM | – | – | – | – |
| Cc1sc2c(c1C)C(c1ccc(C3CCC4(CCN(CN5CC(c6ccc([C@@H]7c8ccc(O)cc8CC[C@@H]7c7ccccc7)cc6)C5)CC4)C3)cc1)=N[C@@H](C)c1nnc(C)n1-2 (stereo partly drawn) [III-228] | 50 to 500 nM | – | < 50 nM | 500 to 2500 nM | – | – | – | – |
| Cc1sc2c(c1C)C(c1ccc(N3CCC(O)(CN4CCN(c5ccc([C@@H]6c7ccc(O)cc7CC[C@@H]6c6ccc(F)cc6)cc5Cl)CC4)CC3)cc1)=N[C@@H](C)c1nnc(C)n1-2 [III-302] | 50 to 500 nM | – | 50 to 500 nM | 500 to 2500 nM | – | – | – | – |
| CC1=C(c2c(F)cc(F)cc2F)[C@H](c2ccc(OCC(=O)N3CCCC4(CCN(c5ccc(C6=N[C@@H](Cc7ncco7)c7nnc(C)n7-c7sc(C)c(C)c76)cc5)C4)C3)cc2)Oc2ccc(O)cc21 (stereo partly drawn) [V-33] | 50 to 500 nM | – | < 50 nM | 50 to 500 nM | – | – | – | – |
| COc1ccc(-c2sc3cc(OC)ccc3c2C(=O)c2ccc(OCCN3CCC4(CC3)CC(Oc3ccc(C5=N[C@@H](Cc6ncco6)c6nnc(C)n6-c6sc(C)c(C)c65)cc3)C4)cc2)cc1 [V-2] | – | 50 to 500 nM | – | – | – | – | 50 to 500 nM | 500 to 2500 nM |
| Cc1sc2c(c1C)C(c1ccc(N3CCC(O)(CN4CCN(c5ccc([C@@H]6c7ccc(O)cc7CC[C@@H]6c6ccccc6)nn5)CC4)CC3)cc1)=N[C@@H](C)c1nnc(C)n1-2 [III-217] | 50 to 500 nM | – | < 50 nM | 50 to 500 nM | – | – | – | – |
